Measured values reported in ChEMBL document CHEMBL1909046, “DrugMatrix in vitro pharmacology data”.

What was measured:
[1] = DRUGMATRIX: Sodium/nucleoside co-transporter radioligand binding (ligand: nitrobenzylthioinosine); format: cell membranes, Cavia porcellus, Dunkin-Hartley, Cerebral cortex, Membrane; details: Not Active = under 50% inhibition at 10 µM
Adenosine receptor A1 = target: T1, Adenosine receptor A1 (Homo sapiens, UniProt P30542); format: cell membranes, Membrane; details: cho;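 further: radioligand binding assay at the adenosine A1 receptor, with DPCPX serving as the labelled ligand; in other assays of this panel Not Active means under 50% inhibition at 10 µM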
T1 sequence (P30542 whole entry): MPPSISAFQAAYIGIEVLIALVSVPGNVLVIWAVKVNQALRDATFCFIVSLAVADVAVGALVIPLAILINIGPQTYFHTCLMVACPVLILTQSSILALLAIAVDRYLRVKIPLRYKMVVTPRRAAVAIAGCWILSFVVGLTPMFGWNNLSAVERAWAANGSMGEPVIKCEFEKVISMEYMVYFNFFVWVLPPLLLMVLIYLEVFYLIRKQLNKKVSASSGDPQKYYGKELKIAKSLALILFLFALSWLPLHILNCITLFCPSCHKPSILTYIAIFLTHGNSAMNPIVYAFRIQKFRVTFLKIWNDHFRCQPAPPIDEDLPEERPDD

Neutrophil elastase = target: T2, Neutrophil elastase (Homo sapiens, UniProt P08246); format: tissue-based;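 further: inhibition of neutrophil elastase enzyme activity, measured with a p-nitroanilide-linked peptide substrate; in other assays of this panel Not Active means under 50% inhibition at 10 µM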
T2 sequence (P08246 whole entry): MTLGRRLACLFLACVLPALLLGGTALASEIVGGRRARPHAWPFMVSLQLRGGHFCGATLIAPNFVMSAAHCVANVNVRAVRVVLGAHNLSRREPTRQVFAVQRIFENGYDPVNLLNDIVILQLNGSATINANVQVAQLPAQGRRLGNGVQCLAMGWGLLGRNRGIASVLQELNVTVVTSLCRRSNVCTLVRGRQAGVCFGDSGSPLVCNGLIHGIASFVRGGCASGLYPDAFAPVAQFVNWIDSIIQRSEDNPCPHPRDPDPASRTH

Mu-type opioid receptor = Mu-type opioid receptor (Homo sapiens, UniProt P35372); assay: DRUGMATRIX: Opiate mu (OP3, MOP) radioligand binding (ligand: [3H] Diprenorphine); format: cell membranes, CHO-K1, Membrane; details: cho-k1; Not Active = under 50% inhibition at 10 µM
Sequence of Mu-type opioid receptor (P35372 whole entry): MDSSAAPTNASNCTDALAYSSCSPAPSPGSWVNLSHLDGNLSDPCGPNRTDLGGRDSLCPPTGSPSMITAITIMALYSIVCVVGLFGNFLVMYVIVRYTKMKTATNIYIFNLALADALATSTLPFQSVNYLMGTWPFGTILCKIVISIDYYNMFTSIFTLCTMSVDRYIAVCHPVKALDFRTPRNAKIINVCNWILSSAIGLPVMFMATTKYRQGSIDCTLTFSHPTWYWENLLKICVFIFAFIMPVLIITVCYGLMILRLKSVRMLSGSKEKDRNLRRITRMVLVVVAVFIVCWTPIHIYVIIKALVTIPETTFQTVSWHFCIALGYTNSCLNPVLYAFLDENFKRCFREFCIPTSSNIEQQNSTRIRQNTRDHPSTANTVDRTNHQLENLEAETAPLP

[2] = target: T3, Alpha-2C adrenergic receptor (Homo sapiens, UniProt P18825); assay: DRUGMATRIX: Adrenergic Alpha-2C radioligand binding (ligand: [3H] MK-912); format: cell membranes, Sf9, Membrane
T3 sequence (P18825 whole entry): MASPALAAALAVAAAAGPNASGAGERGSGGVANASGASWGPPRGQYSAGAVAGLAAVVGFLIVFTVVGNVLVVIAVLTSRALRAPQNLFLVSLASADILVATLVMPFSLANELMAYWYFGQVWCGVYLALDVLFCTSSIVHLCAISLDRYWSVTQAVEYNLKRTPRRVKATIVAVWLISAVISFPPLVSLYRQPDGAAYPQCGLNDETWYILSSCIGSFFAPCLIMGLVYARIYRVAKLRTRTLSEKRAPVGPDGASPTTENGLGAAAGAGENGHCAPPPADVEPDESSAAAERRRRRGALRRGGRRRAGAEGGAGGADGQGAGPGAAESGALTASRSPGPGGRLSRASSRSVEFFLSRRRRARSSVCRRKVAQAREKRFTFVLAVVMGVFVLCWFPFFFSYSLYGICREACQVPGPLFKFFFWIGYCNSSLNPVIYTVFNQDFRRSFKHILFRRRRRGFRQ

[3] = target: Platelet-activating factor receptor (Homo sapiens, UniProt P25105); format: tissue-based; further: in other assays of this panel Not Active means under 50% inhibition at 10 µM
Sequence of Platelet-activating factor receptor (P25105 whole entry): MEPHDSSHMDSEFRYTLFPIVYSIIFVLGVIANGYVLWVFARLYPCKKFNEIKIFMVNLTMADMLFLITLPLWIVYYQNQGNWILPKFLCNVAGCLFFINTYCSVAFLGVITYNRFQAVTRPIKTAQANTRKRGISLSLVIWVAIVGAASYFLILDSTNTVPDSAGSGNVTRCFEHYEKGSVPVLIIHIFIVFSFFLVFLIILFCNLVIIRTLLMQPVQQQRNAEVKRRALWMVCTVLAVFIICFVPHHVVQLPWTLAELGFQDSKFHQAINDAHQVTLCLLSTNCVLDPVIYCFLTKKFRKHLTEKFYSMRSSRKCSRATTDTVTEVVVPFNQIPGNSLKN

[4] = target: 5-hydroxytryptamine receptor 1B (Rattus norvegicus, UniProt P28564); format: cell membranes, Wistar, Cerebral cortex, Membrane; details: for Ki: read-out: Ki; on all read-outs here: in other assays of this panel Not Active means under 50% inhibition at 10 µM
Sequence of 5-hydroxytryptamine receptor 1B (P28564 whole entry): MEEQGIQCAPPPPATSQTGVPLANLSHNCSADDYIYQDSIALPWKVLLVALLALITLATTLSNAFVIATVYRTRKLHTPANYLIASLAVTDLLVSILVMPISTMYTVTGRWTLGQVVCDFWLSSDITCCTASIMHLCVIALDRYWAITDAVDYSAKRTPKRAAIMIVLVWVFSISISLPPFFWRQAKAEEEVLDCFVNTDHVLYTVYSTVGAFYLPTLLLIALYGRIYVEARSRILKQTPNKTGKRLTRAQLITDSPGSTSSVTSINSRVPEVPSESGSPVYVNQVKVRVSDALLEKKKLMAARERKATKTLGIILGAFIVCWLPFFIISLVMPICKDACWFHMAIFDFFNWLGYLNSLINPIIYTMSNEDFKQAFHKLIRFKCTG

[5] = DRUGMATRIX: Atrial Natriuretic Factor (ANF) radioligand binding (ligand: [125I] ANF (rat)); format: cell membranes, Cavia porcellus, Dunkin-Hartley, Adrenal gland, Membrane; details: Not Active = under 50% inhibition at 10 µM
[6] = DRUGMATRIX: Calcium Channel Type L, Phenylalkylamine radioligand binding (ligand: [3H] (-)-Desmethoxyverapamil (D-888)); format: cell membranes, Rattus norvegicus, Wistar, Brain, Membrane; details: Not Active = under 50% inhibition at 10 µM

SMILES | IC50 ([1]; read-out: IC50) [µM] | Ki ([1]; read-out: Ki) [µM] | IC50 (Adenosine receptor A1) | IC50 (Neutrophil elastase) | IC50 (Mu-type opioid receptor) | IC50 ([2]; sf9) | IC50 [3] | IC50 ([4]; read-out: IC50) [µM] | Ki [4] [µM] | IC50 [5] | Ki [5] | IC50 [6] | Ki [6] | IC50 [1] | Ki [1] | IC50 [4] | IC50 ([6]; read-out: IC50) [µM] | Ki ([6]; read-out: Ki) [µM] | IC50 ([2]; read-out: IC50) [µM] | Ki ([2]; read-out: Ki) [µM]
CC(=O)N1CCN(c2ccc(OCC3COC(Cn4ccnc4)(c4ccc(Cl)cc4Cl)O3)cc2)CC1 (stereo not drawn) [KETOCONAZOLE] | 4.41 | 1.51 | Not Active | Not Active | Not Active | Not Active | Not Active | 13.5 | 6.15 | Not Active | Not Active | Not Active | Not Active |  |  |  |  |  |  | 
COc1cc(NS(=O)(=O)c2ccc(N)cc2)nc(OC)n1 [SULFADIMETHOXINE] |  |  | Not Active | Not Active | Not Active | Not Active | Not Active |  |  | Not Active | Not Active | Not Active | Not Active | Not Active | Not Active | Not Active |  |  |  | 
O=C(c1ccc(OCCN2CCCCC2)cc1)c1c(-c2ccc(O)cc2)sc2cc(O)ccc12 [RALOXIFENE] |  |  | Not Active | Not Active |  |  | Not Active | 1.86 | 0.846 | Not Active | Not Active |  |  | Not Active | Not Active |  | 0.148 | 0.144 |  | 
CC/C(=C(/CC)c1ccc(O)cc1)c1ccc(O)cc1 [DIETHYLSTILBESTROL] |  |  |  | Not Active |  |  | Not Active |  |  |  |  |  |  |  |  | Not Active |  |  |  | 
C=CCN1CC[C@]23c4c5ccc(O)c4O[C@H]2C(=O)CC[C@@]3(O)[C@H]1C5 [NALOXONE] |  |  | Not Active | Not Active |  | Not Active | Not Active |  |  |  |  |  |  |  |  | Not Active |  |  |  | 
Clc1ccc2c(c1)C(N1CCNCC1)=Nc1ccccc1O2 [AMOXAPINE] |  |  | Not Active | Not Active | Not Active |  | Not Active |  |  |  |  |  |  |  |  | Not Active |  |  |  | 
CC(=O)CC(c1ccccc1)c1c(O)c2ccccc2oc1=O (stereo not drawn) [WARFARIN] |  |  | Not Active | Not Active |  | Not Active | Not Active |  |  | Not Active | Not Active | Not Active | Not Active | Not Active | Not Active | Not Active |  |  |  | 
CC(C)(C)c1ccc(C(O)CCCN2CCC(C(O)(c3ccccc3)c3ccccc3)CC2)cc1 (stereo not drawn) [TERFENADINE] |  |  | Not Active | Not Active | Not Active |  | Not Active |  |  | Not Active | Not Active |  |  | Not Active | Not Active | Not Active | 0.624 | 0.607 |  | 
CC(C)c1nc(CN(C)C(=O)N[C@H](C(=O)N[C@@H](Cc2ccccc2)C[C@H](O)[C@H](Cc2ccccc2)NC(=O)OCc2cncs2)C(C)C)cs1 [RITONAVIR] |  |  | Not Active | Not Active |  | Not Active | Not Active |  |  | Not Active | Not Active |  |  | Not Active | Not Active | Not Active |  |  |  | 
CN1CCC(=C2c3ccccc3C=Cc3ccccc32)CC1 [CYPROHEPTADINE] |  |  | Not Active | Not Active | Not Active |  | Not Active | 2.78 | 1.26 |  |  |  |  |  |  |  |  |  | 1.27 | 0.185
COc1cc2c(c(OC)c1OC)-c1ccc(OC)c(=O)cc1[C@@H](NC(C)=O)CC2 [COLCHICINE] |  |  | Not Active | Not Active |  | Not Active | Not Active |  |  |  |  |  |  |  |  | Not Active |  |  |  | 
